Experiment: Plasma exposure after oral administration of formulations in rats (LC-MS/MS, WinNonlin)
Procedure: In this study, the exposure and distribution of darunavir and efavirenz were evaluated following oral administration in male Sprague-Dawley rats. Four cohorts of 10 rats each were used in this study. The first cohort involved darunavir using the disclosed formulations and the second cohort darunavir in a control formulation. The third cohort involved efavirenz using the disclosed formulations and the fourth cohort efavirenz in a control formulation.
Formulations were administered orally (PO) at 10 mg/kg of darunavir or efavirenz. Following dosing, blood, urine and fecal samples were collected up to 8-hour post dose (groups 1, 3, 5, and 7) or 24-hour post dose (groups 2, 4, 6, and 8). Brain tissue was collected at 8 hours or 24 hours, following the 8 hour or 24-hour urine and feces sample collection. Plasma, urine, feces, and brain tissue concentrations of the analytes were determined by LC-MS/MS. Plasma pharmacokinetic parameters were determined using WinNonlin (v8.0) software.
Plasma, urine, feces, and brain tissue samples were extracted and analyzed using the methods described as follows.
Analytical stock solutions (1.00 mg/mL of the free drug) were prepared in DMSO. Sample Homogenization Brain tissue and feces samples were homogenized with a Virsonic 100 ultrasonic homogenizer. Each brain tissue sample was first weighed, and then an appropriate volume of 20:80 methanol:water was added to make a 2 mL/gram sample. Samples were then homogenized on ice, and stored frozen until analysis. Feces samples were homogenized with 20:80 MeOH:water (8 mL/gram of tissue) prior to extraction. Standard Preparation (Plasma, Urine, and Brain) Standards were prepared in rat plasma containing sodium heparin as the anticoagulant, or in blank tissue homogenate. Working solutions were prepared in 50:50 acetonitrile:water. […] Diluted urine samples were quantified against the rat plasma calibration curve. Brain and feces tissue homogenates were quantified against calibration curves prepared in matched blank tissue homogenate.

SMILES	plasma concentration of disclosed compositions versus control formulations (disclosed compositions compared with compositions without the bioavailability agents)	average plasma concentration (test animals (disclosed test formulation), at 1 hour)	plasma concentration of disclosed compositions versus control formulations (rat, in vivo)
CC(C)CN(C[C@@H](O)[C@H](Cc1ccccc1)NC(=O)O[C@H]1CO[C@H]2OCC[C@H]21)S(=O)(=O)c1ccc(N)cc1 [darunavir]	double	approximately 306 ng/mL	–
O=C1Nc2ccc(Cl)cc2[C@@](C#CC2CC2)(C(F)(F)F)O1 [efavirenz]	–	–	higher levels
